# Measured values: patent US10196424B2, “Oral peptide inhibitors of interleukin-23 receptor and their use to treat inflammatory bowel diseases” (Protagonist Therapeutics, Inc., priority 2014, dated 2019)
# System: DSS-induced colitis in Sprague Dawley rats
# Test: Rat colitis model: 9 days of 3% DSS-containing drinking water
# Assay type: in vivo
# Conditions: 100 mg/kg PO, QD
# Method: Rat Colitis Model: 9 Days of 3% DSS-Containing Drinking Water
# In this model, colitis was induced in SD rats by 9 days of ad lib exposure to drinking water containing 3% DSS. The disease activity index (DAI) score and ratio of colon weight:colon length were compared between three study groups (n=6 rats/group): vehicle, 3% DSS, and 3% DSS with positive control (sulfasalazine administered at 100 mg/kg PO, QD).
# Acute colitis was induced by feeding female Sprague Dawley rats with 3% (wt/vol) DSS dissolved in drinking water. […] A neutralizing anti-IL-23p19 antibody was used as a comparator, and was administered intraperitoneally at 4 mg/kg on the same day and fifth day after starting DSS. […] At necropsy, the entire colon was removed from the cecum to the rectum. The colon was measured for length, flushed with PBS to remove feces, weighed, and opened longitudinally to determine macroscopic score.
# Statistical analysis for significance was compared to the vehicle treated group and was determined using Student's T-test (GraphPad Prism). Differences were noted as significant *p≤0.05, **p≤0.01, ***p≤0.001, ****p≤0.0001.
compound,measurement,setting,value
O=C(O)c1cc(/N=N/c2ccc(S(=O)(=O)Nc3ccccn3)cc2)ccc1O [sulfasalazine],terminal ratio of colon weight:colon length,3% DSS rats with and without treatment,significant
same,disease activity index (DAI) score,"3% DSS rats, compared to DSS alone, from Day 5",attenuated the disease score
